In the supplement of paper PMC7695840:
Counter-ions that a name gives are not always drawn.

Columns and labels:
[1] = tested on: Staphylococcus aureus MW2 (mecA+); assay: IC50 (growth, competition assay); settings: cefoxitin: subinhibitory
Method in brief: (§1)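 Pre-induced, 1:1-mixed fluorescent S. aureus MW2 mecA+ and ΔmecA strains were grown 20 h at 37 °C, 90% humidity, unshaken, in LB with a daily-set subinhibitory cefoxitin dose, in 1536-well plates. Compounds were given on five- or nine-point 2-fold gradients, in two dye-swapped replicates. DsRed (540/590) and GFP (485/520) were scaled per plate between single-strain control medians, with No Treatment then set to 0.5. Per-strain IC50 was the dose halving the No Treatment signal, or the maximal signal.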

[2] = tested on: Staphylococcus aureus MW2 delta-mecA (mecA-); assay: IC50 (growth, competition assay); settings: cefoxitin: subinhibitory
Method in brief: as §1

Compound | IC50 ([1]; fluorescent label: DsRed) [µM] | IC50 ([1]; fluorescent label: GFP) [µM] | IC50 ([2]; fluorescent label: DsRed) [µM] | IC50 ([2]; fluorescent label: GFP) [µM]
CCCCCCCCOc1ccccc1C(=O)Nc1ccc(C(=O)OCC[N+](C)(CC)CC)cc1 [Otilonium Bromide] | < 9.85 | < 9.85 | < 9.85 | < 9.85
Cc1onc(-c2ccccc2)c1C(=O)N[C@@H]1C(=O)N2[C@@H]1SC(C)(C)[C@@H]2C(=O)O [Oxacillin sodium monohydrate] | < 9.85 | < 9.85 | < 9.85 | < 9.85
CCn1cc(C(=O)O)c(=O)c2cc3c(cc21)OCO3 [Oxolinic acid] | 18.3 | 16.1 | 15.1 | 14.6
O=C1C=C2C(=CCOC2O)O1 (stereo unspecified) [PATULIN] | 18.9 | 26.9 | < 9.85 | < 9.85
C[C@H]1COc2c(C3(N)CC3)c(F)cc3c(=O)c(C(=O)O)cn1c23 [PAZUCROSS] | < 9.85 | < 9.85 | < 9.85 | < 9.85
CCn1cc(C(=O)O)c(=O)c2cc(F)c(N3CCN(C)CC3)cc21 [PEFLOXACINE MESYLATE] | < 9.85 | < 9.85 | < 9.85 | < 9.85
CCn1cc(C(=O)O)c(=O)c2cc(F)c(N3CCNCC3)nc21 [PENETREX] | < 9.85 | < 9.85 | < 9.85 | < 9.85
CC(=O)OCC(=O)[C@H]1CC[C@H]2[C@@H]3CCC4=CC(=O)CC[C@]4(C)[C@H]3CC[C@]12C [PERCOTEN] | 144 | 62.6 | 26.6 | > 150
C[C@H]1c2cccc(O)c2C(=O)C2=C(O)[C@]3(O)C(=O)C(C(N)=O)=C(O)[C@@H](N(C)C)[C@@H]3[C@@H](O)[C@@H]21 [PERIOSTAT] | < 9.85 | < 9.85 | < 9.85 | < 9.85
CC(C)(C)CC(C)(C)c1ccc(OCCOCC[N+](C)(C)Cc2ccccc2)cc1 [PHEMERIDE] | < 9.85 | < 9.85 | < 9.85 | < 9.85
CCn1cc(C(=O)O)c(=O)c2cnc(N3CCNCC3)nc21 [PIPEDAC] | 38 | 60.4 | 64.9 | 36.5
CCN1CCN(C(=O)N[C@@H](C(=O)N[C@@H]2C(=O)N3[C@@H]2SC(C)(C)[C@@H]3C(=O)O)c2ccccc2)C(=O)C1=O [PIPRACIL] | 26.8 | 25.2 | < 9.85 | < 9.85
CCOC(=O)C1=C(C)NC(C)=C(C(=O)OC)C1c1cccc(Cl)c1Cl (stereo unspecified) [PLENDIL] | 29.9 | 30 | < 9.85 | < 9.85
CC1=CC(=O)c2c(O)cccc2C1=O [PLUMBAGIN] | 18 | 38.3 | < 9.85 | < 9.85
COc1ccc(Cl)cc1NC(=O)Nc1cc(C)nc2ccccc12 [PQ 401] | 24.3 | 17.9 | 10.6 | 12.3
NCc1ccccc1CC(=O)N[C@@H]1C(=O)N2C(C(=O)O)=C(CSc3nnnn3CC(=O)O)CS[C@H]12 [PRECEF] | 53.1 | 44.7 | < 9.85 | < 9.85
CCOC(=O)c1ccc(N2NC(=O)C(=Cc3ccc([N+](=O)[O-])o3)C2=O)cc1 [PYR-41] | 58.8 | 79.3 | 24.1 | 19
Nc1ccc(/N=N/c2ccccc2)c(N)n1 [PYRIDIUM] | > 150 | > 150 | > 150 | > 150
CCn1cc(C(=O)O)c(=O)c2cc(F)c(N3CCN(C)CC3)cc21 [Pefloxacin Mesylate Dihydrate] | < 9.85 | < 9.85 | < 9.85 | < 9.85
N=C(N)c1ccc(OCCCCCOc2ccc(C(=N)N)cc2)cc1 [Pentamidine HCl] | 37.3 | 46.4 | 23.5 | 16.8
OCCN1CCN(CCCN2c3ccccc3Sc3ccc(Cl)cc32)CC1 [Perphenazine] | 70.8 | 65.7 | 27.1 | 21.1
CC[C@H](C)C(=O)O[C@H]1C[C@H](O)C=C2C=C[C@H](C)[C@H](CC[C@@H](O)C[C@@H](O)CC(=O)O)[C@H]21 [Pravastatin sodium] | 28.8 | 27.8 | < 9.85 | < 9.85
CN1CCN(CCCN2c3ccccc3Sc3ccc(Cl)cc32)CC1 [Prochlorperazine dimaleate] | 56.2 | 54.5 | 21.5 | 18
Cc1oc(=O)oc1CN1CCN(c2cc3c(cc2F)c(=O)c(C(=O)O)c2n3C(C)S2)CC1 (stereo unspecified) [QUISNON] | < 9.85 | < 9.85 | < 9.85 | < 9.85
